Entries after “also recorded” stand apart in the source; their conditions may differ.
Legend:
Mfn2 null MEFs = assay: Mitochondrial elongation (aspect ratio) fusogenicity assay; type: cell-based, mouse
Source text: A cultured murine embryonic fibroblast assay system was used in which mitochondrial elongation (an increase in aspect ratio) reflects enhanced mitochondrial fusion.
A pharmacophore model was generated based on the interactions of HR1 and HR2 domains in the calculated structural model of Mfn2 in the closed conformation. The key features included hydrophobic interactions involving Mfn2 HR1: Val372 and Met376, and aromatic interactions and hydrogen bonding involving Mfn2 HR1 His380. […] A library comprising ˜14 million commercially available compounds was prepared in silico and evaluated using PHASE to fit these criteria. Top ranked hits were clustered, and filtered based on pharmacological properties using Qikprop. The top 55 (see TABLE 4) commercially available small molecules conforming to the model were selected for functional screening and purchased in 1 mg aliquots. Each compound was dissolved to a stock concentration of 10 mM in DMSO and applied to Mfn2 null MEFs overnight at a final concentration of 1 mM. […] Images were acquired by confocal microscopy. Each compound was scored for fusogenicity (see e.g., FIG. 24A) and % cell death (see e.g., FIG. 24B).
Wild-type MEFs were prepared from E10.5 c57/bl6 mouse embryos. […] MEFs were subcultured in DMEM (4.5 g/L glucose) plus 10% fetal bovine serum, 1× nonessential amino acids, 2 mM L-glutamine, 100U/ml penicillin and 100 ug/ml streptomycin.
Cells were excited with 408 nm (Hoechst), […] (MitoTracker Green and Calcein AM, GFP), or 637 nm (TMRE, MitoTracker Orange, Ethidium homodimer-1, and AF594-Dextran) laser diodes. For mitochondrial elongation studies mitochondrial aspect ratio (long axis/short axis) was calculated using automated edge detection and Image J software. Mitochondrial depolarization was calculated as % of green mitochondria visualized on MitoTracker Green and TMRE merged images, expressed as green/(green+yellow mitochondria)×100.

Mfn2 HR2 target peptide = target: T1, Mfn2 HR2 target peptide (Homo sapiens, UniProt O95140); assay: HR1 peptide-HR2 target binding assay
T1 construct: Gly linker (GGGG after the His tag)
T1 sequence (O95140 with tags, fused parts or gaps limits assumed): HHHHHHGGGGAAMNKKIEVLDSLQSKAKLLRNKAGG
Source text: The Mfn-derived fusion-promoting and -inhibiting mini-peptides (simulated to obtain the chemical Mfn agonists in TABLE 1 and TABLE 2) were modified from amino acid heptad repeats (HR) in the HR1 domain and predicted to interact with their counterparts in the carboxyl terminus HR2 domain within the Mfn stalk region (see e.g., FIG. 1, top panel). A high-throughput binding assay was designed whereby the target HR2 peptide sequences, modified to include amino terminal 6×His tags and Gly linkers, were bonded to Ni-chelate resin (20 μg/ml) and used as immobilized “receptor” for amino-FITC-tagged Mfn2 374-384 (agonist ligand) in which the Ser analogous to Ser378 was replaced with Asp to confer the negative charge essential for activity. For antagonist studies the ligand was amino-FITC-tagged Mfn2 406-418. The FITC peptide ligands are suspended at 1 mM in 30% DMSO, 70% water (to minimize spontaneous aggregation) and diluted into binding buffer (de-ionized water) to a final concentration of 25 μM in the presence or absence of competing compound. Dose-dependent loss of resin-bound FITC signal (485 nm excitation/538 nm emission) measured in a 96 well spectrofluorometer represents binding of compound to its HR2 target (see e.g., FIG. 10, FIG. 11). Either the ligand peptide or the receptor peptide can be modified to represent mutations, variations, or posttranslational modifications of Mfn2. […]
Target HR2 peptide sequence modified to include amino terminal 6×His tags and Gly linkers, were bonded to Ni-NTA resin (4.4 μg/ml) (Quiagen) and used as immobilized “receptor” for amino-FITC-tagged Mfn2 374-384 (ligand) in which the Ser analogous to Ser378 was replaced with Asp to confer the negative charge essential for activity. […] Resin-bound FITC signal (485 nm excitation/538 nm emission) measured in a 96 well spectrofluorometer (Spectramax M5e, Molecular Devices) represented binding to HR2 target. Competition binding isotherms were plotted and IC50 values calculated using Prism 7 (Graph Pad).

[1] = test system: MFN2 Asp378 and Ala378 mutants; assay: Mitochondrial fusion in cells expressing MFN2 Ser378 mutants; type: cell-based, human; conditions: phosphomimic Asp378 vs nonphosphorylatable Ala378
Source text: On the basis of fluorescence resonance energy transfer (FRET) analysis of MFN2 labeled at the N and C termini, mitofusin agonists promoted an open MFN2 conformation favoring mitochondrial fusion, with a rank order paralleling that for HR2 binding and mitochondrial fusion (see e.g., FIG. 11G; compare to FIG. 11B and FIG. 11C), supporting allosteric activation.
Human Mfn2 Ser378 was mutated to Ala or Asp by site-directed mutagenesis using the QuikChange Lightning kit (Agilent Technologies Inc.) and primers: […]
Mfn2 and its mutants were sub-cloned into adenoviral vector Type 5 (dE1/E3) with RGD-fiber modification (Vector Biolabs) using BamHI/XhoI. All constructs were verified by Sanger DNA sequencing. Adeno-viral PINK1 was purchased from Vector Biolabs.

[2] = test system: cultured neurons expressing MFN2 T105M or MFN2 R94Q; assay: Cultured mouse neurons expressing CMT2A MFN2 mutants; type: cell-based
Description: Neonatal mouse hippocampal neurons were cultured from brains of one day old Mfn2 T105M or non-transgenic sibling mouse pups as described. After 10 days of differentiating culture neurons were infected with Adeno-Cre to induce Mfn2 T105M expression or Adeno-βgal as a control (50 MOI). After an additional 72 hours mitofusin agonists or DMSO vehicle were added. For static confocal imaging neuronal mitochondria were labeled with adenoviral-expressed mitoGFP plus TMRE. Autophagy was measured by LC3 aggregation in neurons infected with adenoviral LC3-GFP. For time-lapse studies of mitochondrial trafficking bi-cistronic Adeno-Cre/GFP marked Cre expression and mitochondria were labeled with adeno-mitoDsRed. Confocal live cell images were acquired with a time-lapse of 1 frame every 90 seconds for 1 hour.

[3] = test system: MFN2 T105M sciatic nerves; assay: Sciatic nerve axonal mitochondrial motility, agonist applied to nerve; conditions: MFN2 T105M mouse sciatic nerve
Description: Sciatic nerves of 12-18 week old male or female MFN2 T105M mice were removed en bloc with the lumbar spine and axotomy at the tibial nerve, stained with TMEM ([…]) for 30 minutes in prewarmed Neurobasal Medium without phenol red (Thermo Fisher Scientific) at room temperature, washed, and maintained on the stage of a Nikon A1Rsi Confocal Microscope at 37 degrees C. for time-lapse confocal studies. Images were acquired with a 40× oil immersion objective at 1 frame every 5 or 10 seconds for sequential 10 minute periods. Mitofusin agonist chimera B-A/I was added after the first 10 minute imaging period (final concentrations of […]) and nerve axons imaged for another 40 minutes. Because there was no difference in mitochondrial trafficking or response to mitofusin agonist between male and female mice, the data were combined.

competition for minipeptide binding at MFN2 HR2 site (Mfn2 HR2 target peptide): competed for minipeptide binding
Compound: CC1CCCCC1NC(=O)NCCSc1nnc(C2CC2)n1-c1ccccc1 (racemic) [B-A/I, 1-(2-((5-cyclopropyl-4-phenyl-4H-1,2,4-triazol-3-yl)thio)ethyl)-3-(2-methylcyclohexyl)urea]
fusogenic activity (mitochondrial elongation), in words (Mfn2 null MEFs): potently stimulated mitochondrial fusion | selectivity of fusogenic effect for MFN2 Ser378 mutants [1]: non-selective | mitochondrial fragmentation/dysmorphology, hypopolarization, autophagy in neurons ([2]; MFN2 R94Q or T105M): concomitantly corrected | mitochondrial clumping and motility in neurons ([2]; MFN2 T105M): restored mitochondrial motility | sciatic nerve axonal mitochondrial motility [3]: rapidly reverses mitochondrial dysmotility; also recorded: restored mitochondrial motility to within normal levels
